Assay results taken from ChEMBL document CHEMBL5338754, “Identification of Binding Sites in the Nucleotide-Binding Domain of P-Glycoprotein for a Potent and Nontoxic Modulator, the Amine-Containing Monomeric Flavonoid FM04” (J Med Chem, 2023).

Columns and labels:
[1] = target: T1, ATP-dependent translocase ABCB1 (Homo sapiens, UniProt P08183); assay: Negative allosteric modulator activity at P-gp in human LCC6MDR cells overexpressing P-gp assessed as reversal of P-gp mediated paclitaxel resistance activity by measuring relative fold at 1 uM incubated for 5 days by MTS assay; format: cell-based; details: 120 h, time 5 day
[2] = target: T2, ATP-dependent translocase ABCB1 (Homo sapiens, UniProt P08183, Q1193K); assay: Negative allosteric modulator activity at human P-gp Q1193K mutant expressed in HEK293FT cells assessed as reversal of P-gp mediated PTX resistance by measuring sensitivity fold change incubated for 5 days by MTS assay; format: cell-based; details: 120 h, time 5 day
[3] = target: T3, ATP-dependent translocase ABCB1 (Homo sapiens, UniProt P08183, T1226Y); assay: Negative allosteric modulator activity at human P-gp T1226Y mutant expressed in HEK293FT cells assessed as reversal of P-gp mediated PTX resistance by measuring sensitivity fold change incubated for 5 days by MTS assay; format: cell-based; details: 120 h, time 5 day
[4] = target: T1, ATP-dependent translocase ABCB1; assay: Negative allosteric modulator activity at human wildtype P-gp expressed in HEK293FT cells assessed as increase in intracellular doxorubicin accumulation using doxorubicin as substrate at 1 uM incubated for 150 mins by microplate reader assay (reference value: 47.9 +/- 3.5 %); format: cell-based; details: 2.5 h
[5] = target: ATP-dependent translocase ABCB1 (Homo sapiens, UniProt P08183, I1115Y); assay: Negative allosteric modulator activity at human P-gp I1115Y mutant expressed in HEK293FT cells assessed as increase in intracellular doxorubicin accumulation using doxorubicin as substrate at 1 uM incubated for 150 mins by microplate reader assay (reference value: 97.3 +/- 3.7 %); format: cell-based; details: 2.5 h
[6] = target: ATP-dependent translocase ABCB1 (Homo sapiens, UniProt P08183, I1115N); assay: Negative allosteric modulator activity at human P-gp I1115N mutant expressed in HEK293FT cells assessed as increase in intracellular doxorubicin accumulation using doxorubicin as substrate at 1 uM incubated for 150 mins by microplate reader assay (reference value: 98.6 +/- 4.3 %); format: cell-based; details: 2.5 h
[7] = target: ATP-dependent translocase ABCB1 (Homo sapiens, UniProt P08183, I1115M); assay: Negative allosteric modulator activity at human P-gp I1115M mutant expressed in HEK293FT cells assessed as increase in intracellular doxorubicin accumulation using doxorubicin as substrate at 1 uM incubated for 150 mins by microplate reader assay (reference value: 97 +/- 3.1 %); format: cell-based; details: 2.5 h
[8] = target: T3, ATP-dependent translocase ABCB1; assay: Negative allosteric modulator activity at human P-gp T1226Y mutant expressed in HEK293FT cells assessed as increase in intracellular doxorubicin accumulation using doxorubicin as substrate at 1 uM incubated for 150 mins by microplate reader assay (reference value: 67.4 +/- 2 %); format: cell-based; details: 2.5 h
[9] = target: ATP-dependent translocase ABCB1 (Homo sapiens, UniProt P08183, I1115A); assay: Negative allosteric modulator activity at human P-gp I1115A mutant expressed in HEK293FT cells assessed as fold change in intracellular doxorubicin accumulation using doxorubicin as substrate at 1 uM incubated for 150 mins by microplate reader assay relative to DMSO; format: cell-based; details: 2.5 h
[10] = target: ATP-dependent translocase ABCB1 (Homo sapiens, UniProt P08183, L1113A); assay: Negative allosteric modulator activity at human P-gp L1113A mutant expressed in HEK293FT cells assessed as fold change in intracellular doxorubicin accumulation using doxorubicin as substrate at 1 uM incubated for 150 mins by microplate reader assay relative to DMSO; format: cell-based; details: 2.5 h
[11] = target: T2, ATP-dependent translocase ABCB1; assay: Negative allosteric modulator activity at human P-gp Q1193K mutant expressed in HEK293FT cells assessed as fold change in intracellular doxorubicin accumulation using doxorubicin as substrate at 1 uM incubated for 150 mins by microplate reader assay relative to DMSO; format: cell-based; details: 2.5 h
[12] = target: ATP-dependent translocase ABCB1 (Homo sapiens, UniProt P08183, Q1193T); assay: Negative allosteric modulator activity at human P-gp Q1193T mutant expressed in HEK293FT cells assessed as fold change in intracellular doxorubicin accumulation using doxorubicin as substrate at 1 uM incubated for 150 mins by microplate reader assay relative to DMSO; format: cell-based; details: 2.5 h
[13] = target: ATP-dependent translocase ABCB1 (Homo sapiens, UniProt P08183, I1115W); assay: Negative allosteric modulator activity at human P-gp I1115W mutant expressed in HEK293FT cells assessed as fold change in intracellular doxorubicin accumulation using doxorubicin as substrate at 1 uM incubated for 150 mins by microplate reader assay relative to DMSO; format: cell-based; details: 2.5 h
[14] = target: ATP-dependent translocase ABCB1 (Homo sapiens, UniProt P08183, I1115E); assay: Negative allosteric modulator activity at human P-gp I1115E mutant expressed in HEK293FT cells assessed as fold change in intracellular doxorubicin accumulation using doxorubicin as substrate at 1 uM incubated for 150 mins by microplate reader assay relative to DMSO; format: cell-based; details: 2.5 h
[15] = target: T3, ATP-dependent translocase ABCB1; assay: Negative allosteric modulator activity at human P-gp T1226Y mutant expressed in HEK293FT cells assessed as fold change in intracellular doxorubicin accumulation using doxorubicin as substrate at 1 uM incubated for 150 mins by microplate reader assay relative to DMSO; format: cell-based; details: 2.5 h
[16] = target: ATP-dependent translocase ABCB1 (Homo sapiens, UniProt P08183, Q1193F); assay: Activation of P-gp ATPase activity in human P-gp Q1193F mutant expressed in HEK293FT cell microsomes at 20 uM incubated for 1 hr in presence of ATP by Glo-luminescence based microplate reader assay (reference value: 0.41 +/- 0.06 pmol/min/microg); set-up: species or system Microsome
[17] = target: ATP-dependent translocase ABCB1 (Homo sapiens, UniProt P08183, I1115F); assay: Activation of P-gp ATPase activity in human P-gp I1115F mutant expressed in HEK293FT cell microsomes at 20 uM incubated for 1 hr in presence of ATP by Glo-luminescence based microplate reader assay (reference value: 0.21 +/- 0.05 pmol/min/microg); set-up: species or system Microsome
[18] = target: T1, ATP-dependent translocase ABCB1; assay: Activation of P-gp ATPase activity in wildtype human P-gp expressed in HEK293FT cell microsomes at 20 uM incubated for 1 hr in presence of ATP by Glo-luminescence based microplate reader assay (reference value: 0.32 +/- 0.02 pmol/min/microg); set-up: species or system Microsome
[19] = target: P-gp (ABCB1) Q1193A mutant (Homo sapiens, UniProt P08183, Q1193A); assay: Activation of P-gp ATPase activity in human P-gp Q1193A mutant expressed in HEK293FT cell microsomes assessed as fold change of ATPase activity at 20 uM incubated for 1 hr in presence of ATP by Glo-luminescence based microplate reader assay relative to DMSO; set-up: species or system Microsome; details: read-out: FC
[20] = target: P-gp (ABCB1) Q1193N mutant (Homo sapiens, UniProt P08183, Q1193N); assay: Activation of P-gp ATPase activity in human P-gp Q1193N mutant expressed in HEK293FT cell microsomes assessed as fold change of ATPase activity at 20 uM incubated for 1 hr in presence of ATP by Glo-luminescence based microplate reader assay relative to DMSO; set-up: species or system Microsome; details: read-out: FC

T3 sequence (P08183 whole entry T1226Y): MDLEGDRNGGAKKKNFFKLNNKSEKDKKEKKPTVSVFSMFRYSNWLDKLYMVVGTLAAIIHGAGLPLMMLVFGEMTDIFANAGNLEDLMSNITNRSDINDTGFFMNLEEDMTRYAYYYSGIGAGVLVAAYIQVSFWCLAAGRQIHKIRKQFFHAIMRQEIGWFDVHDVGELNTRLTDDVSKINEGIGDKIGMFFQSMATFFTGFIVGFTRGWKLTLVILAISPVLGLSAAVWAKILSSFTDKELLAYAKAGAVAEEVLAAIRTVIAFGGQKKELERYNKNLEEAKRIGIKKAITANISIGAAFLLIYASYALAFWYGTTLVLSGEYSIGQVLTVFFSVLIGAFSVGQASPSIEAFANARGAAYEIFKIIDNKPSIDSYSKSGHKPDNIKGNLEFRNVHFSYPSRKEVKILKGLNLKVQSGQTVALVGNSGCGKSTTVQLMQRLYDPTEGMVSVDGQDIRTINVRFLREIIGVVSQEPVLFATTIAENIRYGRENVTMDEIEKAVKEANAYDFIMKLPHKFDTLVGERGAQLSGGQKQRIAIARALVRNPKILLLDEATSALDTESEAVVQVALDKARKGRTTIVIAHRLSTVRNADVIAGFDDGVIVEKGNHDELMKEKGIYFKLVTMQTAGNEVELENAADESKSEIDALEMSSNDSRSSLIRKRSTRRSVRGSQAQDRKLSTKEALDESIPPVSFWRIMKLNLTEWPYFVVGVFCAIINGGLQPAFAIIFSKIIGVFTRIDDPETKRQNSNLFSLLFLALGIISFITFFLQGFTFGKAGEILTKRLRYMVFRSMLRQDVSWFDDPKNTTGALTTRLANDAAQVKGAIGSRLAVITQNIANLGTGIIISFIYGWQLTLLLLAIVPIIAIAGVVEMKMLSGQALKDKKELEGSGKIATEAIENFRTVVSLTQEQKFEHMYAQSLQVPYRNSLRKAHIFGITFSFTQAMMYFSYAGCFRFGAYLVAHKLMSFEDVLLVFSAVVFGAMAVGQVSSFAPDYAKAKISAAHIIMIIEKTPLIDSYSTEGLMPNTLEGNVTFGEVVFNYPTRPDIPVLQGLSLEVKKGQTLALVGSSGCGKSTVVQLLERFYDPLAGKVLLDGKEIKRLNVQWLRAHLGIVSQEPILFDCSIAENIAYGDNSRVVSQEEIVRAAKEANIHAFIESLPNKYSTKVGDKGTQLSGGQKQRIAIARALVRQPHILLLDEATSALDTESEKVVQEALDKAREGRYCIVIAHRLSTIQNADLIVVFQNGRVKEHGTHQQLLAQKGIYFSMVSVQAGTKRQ
T1 sequence (P08183 whole entry): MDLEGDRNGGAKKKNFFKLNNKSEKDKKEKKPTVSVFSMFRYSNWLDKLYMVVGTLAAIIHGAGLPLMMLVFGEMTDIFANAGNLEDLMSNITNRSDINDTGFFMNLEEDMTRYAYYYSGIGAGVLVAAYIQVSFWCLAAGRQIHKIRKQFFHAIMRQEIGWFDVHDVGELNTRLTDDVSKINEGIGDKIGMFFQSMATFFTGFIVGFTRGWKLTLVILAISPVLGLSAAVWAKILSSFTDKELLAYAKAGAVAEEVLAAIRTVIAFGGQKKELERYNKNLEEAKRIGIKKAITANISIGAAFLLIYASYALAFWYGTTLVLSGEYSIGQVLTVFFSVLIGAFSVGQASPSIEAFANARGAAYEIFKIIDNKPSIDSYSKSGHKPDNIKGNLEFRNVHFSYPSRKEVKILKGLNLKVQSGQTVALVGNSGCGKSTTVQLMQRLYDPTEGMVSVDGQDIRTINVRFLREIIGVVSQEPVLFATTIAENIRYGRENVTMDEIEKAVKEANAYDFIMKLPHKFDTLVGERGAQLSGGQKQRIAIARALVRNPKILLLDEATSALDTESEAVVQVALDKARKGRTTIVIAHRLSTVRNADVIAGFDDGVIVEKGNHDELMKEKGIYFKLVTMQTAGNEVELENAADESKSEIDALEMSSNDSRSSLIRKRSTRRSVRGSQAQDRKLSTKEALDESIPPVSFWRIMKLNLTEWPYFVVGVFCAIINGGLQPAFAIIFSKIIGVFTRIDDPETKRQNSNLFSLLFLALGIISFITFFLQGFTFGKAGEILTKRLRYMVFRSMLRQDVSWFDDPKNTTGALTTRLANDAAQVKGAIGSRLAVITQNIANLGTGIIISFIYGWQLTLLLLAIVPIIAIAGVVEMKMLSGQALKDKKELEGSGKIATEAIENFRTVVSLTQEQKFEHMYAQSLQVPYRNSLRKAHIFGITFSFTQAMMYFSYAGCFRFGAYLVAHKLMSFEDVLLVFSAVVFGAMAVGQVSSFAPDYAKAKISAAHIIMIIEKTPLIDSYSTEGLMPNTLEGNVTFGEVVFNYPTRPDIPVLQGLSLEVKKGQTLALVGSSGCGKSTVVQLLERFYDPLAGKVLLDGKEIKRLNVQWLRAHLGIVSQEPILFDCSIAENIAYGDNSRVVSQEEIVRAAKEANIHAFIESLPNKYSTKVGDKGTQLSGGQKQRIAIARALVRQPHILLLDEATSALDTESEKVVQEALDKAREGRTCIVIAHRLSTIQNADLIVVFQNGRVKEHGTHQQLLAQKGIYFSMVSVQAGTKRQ
T2 sequence (P08183 whole entry Q1193K): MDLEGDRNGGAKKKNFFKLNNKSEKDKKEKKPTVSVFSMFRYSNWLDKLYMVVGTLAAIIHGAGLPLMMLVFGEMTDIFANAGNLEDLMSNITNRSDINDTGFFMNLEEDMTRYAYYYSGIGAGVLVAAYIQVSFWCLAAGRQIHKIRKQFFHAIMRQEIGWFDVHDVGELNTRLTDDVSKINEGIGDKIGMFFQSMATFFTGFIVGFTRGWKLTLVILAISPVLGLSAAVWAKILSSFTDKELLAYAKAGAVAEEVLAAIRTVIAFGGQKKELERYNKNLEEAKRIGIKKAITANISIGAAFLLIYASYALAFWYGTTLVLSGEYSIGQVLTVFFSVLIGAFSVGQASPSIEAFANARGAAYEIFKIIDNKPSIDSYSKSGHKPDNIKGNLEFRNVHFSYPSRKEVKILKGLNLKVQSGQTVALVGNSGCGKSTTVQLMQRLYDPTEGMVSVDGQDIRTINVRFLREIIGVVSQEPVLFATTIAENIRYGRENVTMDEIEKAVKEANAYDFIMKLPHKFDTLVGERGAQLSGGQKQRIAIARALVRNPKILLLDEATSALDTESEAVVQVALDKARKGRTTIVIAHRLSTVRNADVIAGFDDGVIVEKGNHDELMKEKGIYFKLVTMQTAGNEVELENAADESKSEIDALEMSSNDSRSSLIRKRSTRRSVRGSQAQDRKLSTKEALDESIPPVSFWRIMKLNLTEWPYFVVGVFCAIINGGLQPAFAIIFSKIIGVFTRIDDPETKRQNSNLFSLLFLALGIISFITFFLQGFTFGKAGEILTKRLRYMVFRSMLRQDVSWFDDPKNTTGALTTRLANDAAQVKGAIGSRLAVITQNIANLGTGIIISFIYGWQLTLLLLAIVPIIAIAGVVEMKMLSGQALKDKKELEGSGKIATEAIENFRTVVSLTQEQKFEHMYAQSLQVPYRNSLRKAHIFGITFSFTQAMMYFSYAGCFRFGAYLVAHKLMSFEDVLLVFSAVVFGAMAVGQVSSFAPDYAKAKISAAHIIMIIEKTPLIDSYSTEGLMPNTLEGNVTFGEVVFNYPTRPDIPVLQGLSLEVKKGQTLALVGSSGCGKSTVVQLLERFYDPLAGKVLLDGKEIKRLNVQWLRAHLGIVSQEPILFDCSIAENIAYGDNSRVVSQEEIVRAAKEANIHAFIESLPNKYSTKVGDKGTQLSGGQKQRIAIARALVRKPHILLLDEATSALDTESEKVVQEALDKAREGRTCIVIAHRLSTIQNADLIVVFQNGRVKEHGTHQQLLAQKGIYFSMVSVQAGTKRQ
Sequence of ATP-dependent translocase ABCB1 (Homo sapiens, UniProt P08183, L1113A) (P08183 whole entry L1113A): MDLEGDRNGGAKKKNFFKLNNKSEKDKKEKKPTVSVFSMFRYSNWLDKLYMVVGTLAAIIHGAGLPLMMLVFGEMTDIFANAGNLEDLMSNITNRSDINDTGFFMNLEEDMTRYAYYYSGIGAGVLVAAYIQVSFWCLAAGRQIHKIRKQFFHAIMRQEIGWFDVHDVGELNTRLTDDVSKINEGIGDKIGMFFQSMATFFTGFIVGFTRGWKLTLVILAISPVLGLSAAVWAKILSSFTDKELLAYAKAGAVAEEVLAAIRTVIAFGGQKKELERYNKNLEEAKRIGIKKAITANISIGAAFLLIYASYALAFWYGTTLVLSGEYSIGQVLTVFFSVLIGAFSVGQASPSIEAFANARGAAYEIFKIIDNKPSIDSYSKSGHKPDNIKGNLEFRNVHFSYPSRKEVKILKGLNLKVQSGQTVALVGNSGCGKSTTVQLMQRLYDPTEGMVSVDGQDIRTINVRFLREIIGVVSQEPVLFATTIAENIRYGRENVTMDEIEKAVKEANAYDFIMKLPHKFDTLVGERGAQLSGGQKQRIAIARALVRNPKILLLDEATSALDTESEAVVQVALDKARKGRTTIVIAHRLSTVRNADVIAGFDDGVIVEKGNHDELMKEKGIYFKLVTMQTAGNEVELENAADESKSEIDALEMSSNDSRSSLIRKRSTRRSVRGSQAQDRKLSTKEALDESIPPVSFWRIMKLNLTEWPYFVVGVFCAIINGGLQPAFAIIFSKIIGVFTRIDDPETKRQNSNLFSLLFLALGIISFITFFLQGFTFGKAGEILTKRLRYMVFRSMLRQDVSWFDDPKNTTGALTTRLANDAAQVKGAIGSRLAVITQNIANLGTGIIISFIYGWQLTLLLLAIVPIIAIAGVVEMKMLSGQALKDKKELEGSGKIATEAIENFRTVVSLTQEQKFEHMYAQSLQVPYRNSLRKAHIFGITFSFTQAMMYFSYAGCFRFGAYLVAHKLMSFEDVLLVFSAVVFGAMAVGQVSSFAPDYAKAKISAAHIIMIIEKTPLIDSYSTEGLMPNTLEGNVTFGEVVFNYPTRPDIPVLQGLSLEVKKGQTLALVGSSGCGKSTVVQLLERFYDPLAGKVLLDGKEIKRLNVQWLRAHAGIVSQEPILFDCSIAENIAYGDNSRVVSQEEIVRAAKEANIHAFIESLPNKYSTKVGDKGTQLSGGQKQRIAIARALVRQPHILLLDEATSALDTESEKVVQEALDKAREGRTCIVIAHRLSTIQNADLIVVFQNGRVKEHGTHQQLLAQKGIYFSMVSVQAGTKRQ

fold change (FC) [1]: 34.1
fold change (FC) [2]: 9.4
fold change (FC) [3]: 62.4
Activity [4]: 90.1%
Activity [5]: 96.4%
Activity [6]: 94.1%
Activity [7]: 93.3%
Activity [8]: 104%
fold change (FC) [9]: 1
fold change (FC) [10]: 1.8
fold change (FC) [11]: 1.3
fold change (FC) [12]: 1.3
fold change (FC) [13]: 1
fold change (FC) [14]: 1
fold change (FC) [15]: 1.5
Activity [16]: 0.45 pmol/min/µg
Activity [17]: 0.25 pmol/min/µg
Activity [18]: 0.52 pmol/min/µg
fold induction at 1 h, 20 µM [19]: 1.1
fold induction at 1 h, 20 µM [20]: 1.7
SMILES: O=c1cc(-c2ccc(OCCOCCNCc3ccccc3)cc2)oc2ccccc12
